Reference: US20260248879A1, “METHODS OF USING A GCG/GLP1 CO-AGONIST FOR THERAPY” (ELI LILLY AND COMPANY, priority 2022, published 2026)

Experiments:
[1] = test system: patients with T2DM; experiment: Example 1 study: adverse events; assay type: in vivo
Description: Investigators are responsible for monitoring the safety of patients who have entered this study. The investigator is responsible for the appropriate medical care of patients during the study. Investigators document their review of each laboratory safety report. The investigator remains responsible for following, through an appropriate health care option,
AEs that are serious or otherwise medically important, considered related to Compound 1 or the study, or that caused the patient to discontinue Compound 1 before completing the study. The patient is followed until the event resolves, stabilizes with appropriate diagnostic evaluation, or is reasonably explained. The frequency of follow-up evaluations of the AE is left to the discretion of the investigator.
The investigator records all relevant AE and SAE information. After receiving consent from the patient, study site personnel record the occurrence and nature of each patient's preexisting conditions, including clinically significant signs and symptoms of the disease under treatment in the study. Additionally, site personnel record any change in the condition(s) and the occurrence and nature of any AEs.
The investigator interprets and document whether or not an AE has a reasonable possibility of being related to study treatment, or a study procedure, taking into account the disease, concomitant treatment, or pathologies.
A “reasonable possibility” means that there is a potential cause and effect relationship between Compound 1, study device, and/or study procedure and the AE. Planned surgeries should not be reported as AEs unless the underlying medical condition has worsened during the course of the study.
A Serious Adverse Event (SAE) is any AE from this study that results in one of the following: • death • initial or prolonged inpatient hospitalization • a life-threatening experience (i.e., immediate risk of dying) • persistent or significant disability/incapacity • congenital anomaly/birth defect • important medical events that may not be immediately life-threatening or result in death or hospitalization but may jeopardize the patient or may require intervention to prevent one of the other outcomes listed in the definition above.
All AEs occurring after signing the ICF are recorded and assessed for serious criteria.

[2] = test system: individuals with obesity; experiment: Example 2 study: adverse events; assay type: in vivo, human
Description: This study is designed to evaluate the safety, tolerability, PD and PK of dose to higher doses of Compound 1 in individuals with obesity. The Multiple Ascending Dose (MAD) study is a randomized, investigator- and participant-blind, placebo-controlled, multiple-ascending dose, single- or multi-site study conducted in individuals with obesity (i.e., females or males aged 18-70 years, inclusive, a BMI in the range of 27 kg/m^2 to 50 kg/m^2). Participants should have stable body weight for at least 3 months prior to the initiation of the study.
Dose of Compound 1 is assessed with weekly dosing over 20 weeks in 2 cohorts. Each cohort comprises 12 patients-nine patients are administered Compound 1 and three patients are administered placebo.
The dose for Cohort 1 is as follows: • 1.5 mg Compound 1 for 2 weeks; • 3.0 mg Compound 1 for 2 weeks; • 6.0 mg Compound 1 for 4 weeks; • 8.0 mg Compound 1 for 4 weeks; • 12.0 mg Compound 1 for 4 weeks; and • 16.0 mg Compound 1 for 4 weeks.
The dose for Cohort 2 is as follows: • 2.0 mg Compound 1 for 3 weeks; • 4.0 mg Compound 1 for 3 weeks; • 6.0 mg Compound 1 for 3 weeks; • 8.0 mg Compound 1 for 3 weeks; • 10.0 mg Compound 1 for 2 weeks; • 13.0 mg Compound 1 for 2 weeks, and • 16.0 mg Compound 1 for 4 weeks.
Safety parameters assessed during the study include: AEs (with special interest to GI AEs such as nausea, vomiting, and diarrhea), laboratory parameters, physical examinations/medical assessments, vital signs and ECGs, BW, injection site reactions, hypersensitivity reactions, and glucose monitoring (with special attention to hypoglycemia).

CC(C)C[C@H](NC(=O)[C@H](CC(C)C)NC(=O)[C@H](Cc1c[nH]c2ccccc12)NC(=O)[C@H](CCC(=O)O)NC(=O)[C@@H](NC(=O)[C@H](Cc1ccccc1)NC(=O)[C@H](CCC(=O)O)NC(=O)[C@H](CCCCNC(=O)COCCOCCNC(=O)COCCOCCNC(=O)CC[C@H](NC(=O)CCCCCCCCCCCCCCCCCCC(=O)O)C(=O)O)NC(=O)[C@H](C)NC(=O)[C@H](CCCCN)NC(=O)[C@H](CCCCN)NC(=O)[C@H](CCC(=O)O)NC(=O)[C@H](CC(=O)O)NC(=O)[C@H](CC(C)C)NC(=O)[C@H](Cc1ccc(O)cc1)NC(=O)[C@H](CCCCN)NC(=O)[C@H](CO)NC(=O)[C@H](Cc1ccc(O)cc1)NC(=O)[C@H](CC(=O)O)NC(=O)[C@H](CO)NC(=O)[C@@H](NC(=O)[C@H](Cc1ccccc1)NC(=O)[C@@H](NC(=O)CNC(=O)[C@H](CCC(N)=O)NC(=O)C(C)(C)NC(=O)[C@@H](N)Cc1c[nH]cn1)[C@@H](C)O)[C@@H](C)O)C(C)C)C(=O)N[C@@H](CCC(=O)O)C(=O)NCC(=O)NCC(=O)N1CCC[C@H]1C(=O)N[C@@H](CO)C(=O)N[C@@H](CO)C(=O)NCC(N)=O [Compound 1]
SAE reported, MedDRA preferred term ([1]; in vivo): Sarcoidosis | abdominal pain, number of participants ([1]; in vivo): 1 | abdominal pain, percentage of participants ([1]; in vivo): 5.6% | constipation, number of participants ([1]; in vivo): 2 | constipation, percentage of participants ([1]; in vivo): 11.1% | diarrhea, number of participants ([1]; in vivo): 4 | diarrhea, percentage of participants ([1]; in vivo): 22.2% | eructation, number of participants ([1]; in vivo): 4 | eructation, percentage of participants ([1]; in vivo): 22.2% | nausea, number of participants ([1]; in vivo): 7 | nausea, percentage of participants ([1]; in vivo): 38.9% | number of patients treated with study intervention reporting an SAE ([1]; in vivo): 1 | number of patients with TEAEs ([1]; in vivo): 17 | vomiting, number of participants ([1]; in vivo): 5 | vomiting, percentage of participants ([1]; in vivo): 27.8% | deaths ([1]; whole study): No deaths occurred | deaths ([2]; Example 2 study): No deaths occurred | most common treatment-emergent adverse events ([2]; in vivo): gastrointestinal in nature (nausea, vomiting, diarrhea) | serious adverse events ([2]; in vivo): No serious adverse events were observed
